# Reference: EP0335331A1, “O- (1,2-Di-O-acetyl-glycero-3-phosphoryl)ethanolamine, a process for its preparation and its therapeutic use” (MAGIS FARMACEUTICI S.p.A., priority 1988, dated 1989)
# Columns and labels:
# [1] = test system: rat; experiment: olive oil-induced alteration of lipoprotein state, plasma cholesterol and triglycerides; format: in vivo; conditions: normally fed rat treated orally with 15 ml/kg of olive oil; greatest effect two hours after the olive oil treatment
# Procedure: The effect of the compound in terms of modifying the lipoprotein state and the plasma cholesterol and triglyceride levels, altered by oral administration of olive oil, was studied in normally fed rat treated orally with 15 ml/kg of olive oil at various concentrations.
# [2] = acute toxicity by the Weil method; conditions: in vivo, mouse, read-out: LD₅₀
# Text: The acute toxicity of the compound of formula (I) was studied on the mouse by the Weil method [Weil C.S. Biometr. 8, 249 (1952)].
structure (smiles),measurement,setting,value
"CC(=O)OCC(COP(=O)(O)OCCN)OC(C)=O (centres unmarked) [compound of formula (I), O-(1,2-di-O-acetylglycero-3-phosphoryl)ethanolamine]","effect on increase in triglycerides and cholesterol, reduction in the α-lipoproteins and increase in the β and pre-β fractions",[1],"well antagonised by the compound, which proved able to return the parameters to normality"
same,LD50,[2],> 2000 mg/kg
